Experimental data reported in patent US7662782B2, “Melanocortin 1 receptor selective compounds” (Action Pharma A/S, priority 1998, dated 2010).
Square brackets hold non-standard residues; d marks the D form. Ends that are not written are not given here. Peptide text beside a SMILES is read from it.

How the values were obtained:
human MC3-receptor = biological target: T1, human MC3-receptor (Homo sapiens, UniProt P41968); assay: Competition for [125I]NDP-MSH binding to recombinant human MC3-receptor in COS cells; conditions: for Ki: [125I]NDP-MSH competition, transfected COS cells
T1 construct: expressed in transfected cells; host or cells: COS (COS-1) cells, transient, 48 h
Experimental: (§1) Expression of receptor clones. Human MC1- and MC5-receptor DNAs (Chhajlani and Wikberg 1992; Chhajlani et al., 1993), cloned into the expression vector pRc/CMV (InVitrogen Corp., USA), and human MC3- and human MC4-receptor DNAs (Gantz et al., 1993a & b), cloned into the expression vector pCMV/neo, were used. COS cells were grown and transfected with receptor clones as described (Schiöbth et al. 1995, 1996b). After transfection cells were cultivated for 48 h, detached from the Petri dishes, and used for radioligand binding as described (Schiöth et al. 1995, 1996b).
(§2) Binding studies. […] The competition data were analyzed by fitting it to the logistic function using non-linear regression analysis. The Ki-values were then calculated from the thus obtained IC50-values by using the Cheng and Prusoff equation, essentially as described by Schiöth et al. 1995, 1996b.

human MC4-receptor = biological target: T2, human MC4-receptor (Homo sapiens, UniProt P32245); assay: Competition for [125I]NDP-MSH binding to recombinant human MC4-receptor in COS cells; conditions: for Ki: [125I]NDP-MSH competition, transfected COS cells
T2 construct: expressed in transfected cells; host or cells: COS (COS-1) cells, transient, 48 h
Experimental: as §1, §2

human MC1-receptor [1] = biological target: T3, human MC1-receptor (Homo sapiens, UniProt Q01726); assay: Stimulation of cAMP formation in B16G4F cells stably expressing human MC1-receptors; type: cell-based; set-up: expressed in transfected cells; conditions: for Fold stimulation of cAMP: vs untreated control cells, mean ± SD of 3 experiments
Experimental: Human MC1-receptors had been cloned earlier into pZeoSV (Invitrogen) (Szardenings et al., 1997). The resulting vectors were used for transformation of the amelanotic mouse melanoma cell line B16G4F that lacks the mouse MC1-receptors (Solca et al., 1993) using liposomes (Campbell, 1995) as described previously (Schiöth et al., 1997b). Cells were cultivated in Dulbecco's modified Eagle's medium with 10% fetal calf serum at 7% CO2 for 24 hours and seeded on large plates in the same medium containing 300 μg/ml Zeocin. The medium was exchanged every 4-5 days until cell foci appeared. Single foci were isolated and grown under antibiotic selection.
For cAMP measurements the cells were detached from 60-80% confluent adherent cultures using Hank's balanced salts containing 0.5 mM EDTA and incubated for 30-60 min at 37° C. in ordinary growth medium containing 0.5 mM of the phosphodiesterase inhibitor 3-isobutyl-1-methyl-xanthine (IBMX). 20 μl aliquots of appropriate dilutions of test compounds in growth medium were prepared in 96 well microtitre plates and placed in a water bath at 37° C. For the stimulation about 1.5×10^5 cells in 180 μl were quickly added to each well to obtain immediate mixing. After 20 min 20 μl of 4.4 M perchloric acid were added, mixed, neutralized after a few minutes by addition of 20 μl base (5 M KOH, 1 M Tris) and centrifuged.
20 μl of acid treated supernatant obtained above were mixed with 50 μl buffer (100 mM Tris-Cl, 250 mM NaCl, 10 mM EDTA, 0.1% mercaptoethanol, 0.5 mM IBMX, pH=7.4) containing 0.01 μCi [^3H]cAMP (Amersham, 1.04 TBq/mmol, 1 μCi/μl, product no.: TRK304). 200 μl of the same buffer containing a 1:16 diluted porcine adrenal gland bark extract (prepared as described by Nordstedt and Fredholm, 1990) were added and the microtitre plates were incubated for at least 2 hours at 4° C. A standard curve was prepared in the same manner with dilutions of cAMP covering the range 2 μM -0.5 nM.
After completion of incubation the solutions were filtered over GF-B glassfibre filters (Whatman) and washed briefly with ca. 2 ml ice-cold washing buffer (50 mM Tris-Cl, pH=7.4). Radioactivity on the filters was measured after-addition of scintillation liquid. Stimulation experiments were determined in quadruplicates and standard curves in duplicates.

human MC5-receptor = biological target: T4, human MC5-receptor (Homo sapiens, UniProt P33032); assay: Competition for [125I]NDP-MSH binding to recombinant human MC5-receptor in COS cells; conditions: for Ki: [125I]NDP-MSH competition, transfected COS cells
T4 construct: expressed in transfected cells; host or cells: COS (COS-1) cells, transient, 48 h
Experimental: as §1, §2

human MC1-receptor [2] = biological target: T3, human MC1-receptor; assay: Competition for [125I]NDP-MSH binding to recombinant human MC1-receptor in COS cells; set-up: expressed in transfected cells; host or cells: COS (COS-1) cells, transient, 48 h; conditions: [125I]NDP-MSH competition, transfected COS cells
Experimental: as §1, §2

[3] = system: mouse RAW 264.7 macrophage cells; assay: Inhibition of nitric oxide production in LPS/interferon gamma stimulated RAW 264.7 cells; type: cell-based; conditions: FIG. 6; 100 ng/mL LPS + 5 units/mL interferon gamma, 16 h; potencies and efficacies similar to α-MSH
Experimental: RAW 264.7 cells (TIB-71), obtained from American Type Culture Collection, 12301 Parklawn Drive, Rockville, Md., 20852, USA, and cultured in Dulbecco's modified Eagle medium (Gibco, BRL) supplemented with 10% heat-inactivated fetal bovine serum, 100 IU penicillin/ml and 100 μg streptomycin/ml at 37° C. in a humidified atmosphere of 95% air and 5% CO2. Cells grown in monolayers were detached from the culture flasks and collected by low speed centrifugation (700×g). […]
Nitric oxide was measured by monitoring the nitrite production essentially using the method of Wishnok et al. (Methods in Enzymology, 1996, 268, 130-151). In brief 50 μL of culture medium was mixed with 50 μL Griess reagent (i.e. a 1:1 mixture of 0.1% N-naphthylethylenediamine dihydrochloride and 1% sulfanilamide in 5% (v/v) phosphoric acid) and after 10 min the absorption was measured at 540 nm. The nitrite concentrations were calculated from a standard curve constructed, by instead of culture medium, adding 50 μL of between 3 to 100 μM of NaNO2 to the assays.

[4] = system: mouse RAW 264.7 macrophage cells; assay: Stimulation of cAMP-formation in mouse RAW 264.7 macrophage cells; type: cell-based; conditions: FIG. 5; both peptides at similar potencies and efficacies
Experimental: RAW 264.7 cells were grown as described in Example 6. cAMP was determined essentially as described in Example 5.

BALB/C mice = assay: DNFB contact hypersensitivity in BALB/C mice (paw oedema, blood cell counts); type: in vivo, mouse; conditions: for inhibition of paw oedema: daily, vs DNFB animals not given MS05
Experimental: Marked positive treatment effects were found upon administration of MS05 to BALB/C mice. Animals were sensitized by injection of 2,4-dinitrofluorobenzene (DNFB). First 30 μL of 0.5% DNFB was administered to the shaved abdomen of the mice and after 4 days 10 μL of 0.3% DNFB was challenged to one paw, another paw being unchallenged and serving as a control. MS05 was administered, using a solution of MS05 in 0.9% saline, intraperitonally two hours before sensitization, and then the same dose was given intra-peritonally for four consecutive days, each dose of MS05 amounting to 0.05, 0.25, 0.37, 0.5 and 0.75 mg/kg. […] Therefore the compound of the invention is in a further sense immunomodulatory.

mouse B16 melanoma cells = assay: Stimulation of cAMP-formation in mouse B16 melanoma cells; type: cell-based; conditions: FIG. 3; both peptides at similar potencies and efficacies
Experimental: B16 mouse melanoma cells (B16-F1; CRL-6323, American Type Culture Collection, 12301 Parklawn Drive, Rockville, Md., 20852), were cultured in Dulbecco's modified Eagle medium (DMEM; Gibco BRA Gaithersburg, USA, cat no. 041-01966H) supplemented with 10% heat-inactivated fetal bovine serum, 100 IU penicillin/mL and 100 μg streptomycin/mL at 37° C. in a humidified atmosphere of 95% air and 5% CO2. Cells grown in monolayers were detached from 60-80% confluent adherent cultures using Hank's balanced salts containing 0.5 mM EDTA and collected by low speed centrifugation (700×g).
The cells were incubated for 30 min at 37° C. in DMEM containing 0.5 mM of the phosphodiesterase inhibitor 3-isobutyl-1-methyl-xanthine (IBMX). 20 μL aliquots of appropriate dilutions of test compounds in growth medium were prepared in 96 well microtitre plates The plates were then placed in a water bath at 37° C. and about 1.5×10^5 cells in 180 μL were quickly added to each well to obtain immediate mixing. […]
After completion of the incubations the solutions were rapidly filtered onto GF-B glassfibre filters (Whatman), followed by rapid washing of filters with 2 ml ice-cold washing buffer (50 mM Tris-Cl, pH 7.4). […] Radioactivity was counted using a β-counter. Cell experiments were determined in quadruplicates and standard curves in duplicates.

[5] = system: human microvascular endothelial cells (HMEC-1 cells); assay: TNF α induced adhesion molecule expression in HMEC-1 cells; type: cell-based; conditions: TNF α 10 ng/mL
Experimental: In further tests the MS05 or MS09 was administered to human microvascular endothelial cells (HMEC-1 cells; Department of Health & Human Services, Centres for Disease Control and Prevention, Atlanta, Ga. 30333, USA) in vitro. […] In this context by ICAM-1 is intended intercellular adhesion molecule type 1, by VCAM is intended vascular adhesion molecule, and by E-Selectin is intended endothelial selectin (Sluiter et al, J. Cardiovasc. Pharmacol. 1993, 22 Suppl 4: S37-44, Elangbam et al., Vet. Pathol. 1997 Jan. 34(1): 61-73).

[6] = intraperitoneal, best effect at 0.5 mg/kg daily

T4 sequence (P33032 whole entry): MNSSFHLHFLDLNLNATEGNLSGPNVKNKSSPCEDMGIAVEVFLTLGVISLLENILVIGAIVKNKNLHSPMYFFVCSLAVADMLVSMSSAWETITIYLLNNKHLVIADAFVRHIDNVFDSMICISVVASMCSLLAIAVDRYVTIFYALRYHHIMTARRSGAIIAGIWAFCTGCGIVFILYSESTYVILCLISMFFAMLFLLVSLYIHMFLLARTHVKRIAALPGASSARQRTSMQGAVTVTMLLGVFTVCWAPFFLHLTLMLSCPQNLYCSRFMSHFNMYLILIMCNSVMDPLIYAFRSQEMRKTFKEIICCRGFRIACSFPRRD
T1 sequence (P41968 whole entry): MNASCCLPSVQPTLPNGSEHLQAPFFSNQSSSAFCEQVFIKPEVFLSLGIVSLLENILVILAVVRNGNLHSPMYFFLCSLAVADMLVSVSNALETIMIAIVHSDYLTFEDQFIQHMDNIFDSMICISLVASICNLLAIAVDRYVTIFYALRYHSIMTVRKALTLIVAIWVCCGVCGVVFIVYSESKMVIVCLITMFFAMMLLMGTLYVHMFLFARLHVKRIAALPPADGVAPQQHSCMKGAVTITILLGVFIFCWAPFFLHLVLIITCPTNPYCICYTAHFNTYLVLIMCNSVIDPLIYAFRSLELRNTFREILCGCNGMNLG
T2 sequence (P32245 whole entry): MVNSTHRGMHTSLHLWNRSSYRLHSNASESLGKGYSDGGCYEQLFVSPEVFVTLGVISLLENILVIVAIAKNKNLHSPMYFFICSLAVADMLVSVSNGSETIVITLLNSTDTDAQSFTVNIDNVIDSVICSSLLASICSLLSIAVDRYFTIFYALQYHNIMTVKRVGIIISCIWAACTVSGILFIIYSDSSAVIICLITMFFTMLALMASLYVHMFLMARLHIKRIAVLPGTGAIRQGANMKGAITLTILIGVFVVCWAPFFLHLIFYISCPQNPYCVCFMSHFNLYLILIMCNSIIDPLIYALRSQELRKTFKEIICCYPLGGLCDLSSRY
T3 sequence (Q01726 whole entry): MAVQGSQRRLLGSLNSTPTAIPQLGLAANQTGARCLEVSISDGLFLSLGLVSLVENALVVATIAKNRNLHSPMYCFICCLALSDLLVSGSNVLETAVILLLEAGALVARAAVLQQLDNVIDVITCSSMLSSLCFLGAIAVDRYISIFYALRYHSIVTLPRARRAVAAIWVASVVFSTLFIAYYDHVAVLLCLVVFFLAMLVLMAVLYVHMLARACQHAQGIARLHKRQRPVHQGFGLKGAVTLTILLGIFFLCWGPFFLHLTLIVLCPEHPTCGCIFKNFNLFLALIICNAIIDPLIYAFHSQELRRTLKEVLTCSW

CC[C@H](C)[C@H](NC(=O)[C@H](CO)NC(=O)[C@@H](N)CO)C(=O)N[C@H](C(=O)N[C@@H](CO)C(=O)N[C@@H](Cc1c[nH]cn1)C(=O)N[C@H](Cc1ccccc1)C(=O)N[C@@H](CCCNC(=N)N)C(=O)N[C@@H](Cc1c[nH]c2ccccc12)C(=O)NCC(=O)N[C@@H](CCCCN)C(=O)N1CCC[C@H]1C(=O)N[C@H](C(N)=O)C(C)C)[C@@H](C)CC [MS09, Ser-Ser-Ile-Ile-Ser-His-dPhe-Arg-Trp-Gly-Lys-Pro-Val-NH2] (H-SSIISH[dF]RWGKPV-NH2)
Ki (human MC3-receptor): 7 nM
Ki (human MC4-receptor): 40 nM
% of 10 nM α-MSH (cAMP stimulation) (human MC1-receptor [1]; 10 nM compound): 89%
Ki (human MC5-receptor): 120 nM
Ki (human MC1-receptor [2]): 0.2 nM

SSIISHFRWGKPV-NH2 [MS05, L-seryl-L-seryl-L-Isoleucyl-L-isoleucyl-L-seryl -L-histidyl-L-phenylalanyl-L-arginyl-L-tryptophanyl-glycyl-L-lysyl-L-prolyl-L-valinamide]
Ki (human MC3-receptor): 1360 nM
fold lower affinity for the MC3 receptor than for the MC1-receptor (human MC3-receptor; ratio of Ki values): 1800 fold
Ki (human MC4-receptor): > 50000 nM
fold lower affinity for the MC4 receptor than for the MC1-receptor (human MC4-receptor; ratio of Ki values): more than 65000 fold
% of 10 nM α-MSH (cAMP stimulation) (human MC1-receptor [1]; 10 nM compound): 69%
Fold stimulation of cAMP (human MC1-receptor [1]; 10 nM compound): 4.6 ± 0.3 fold
Fold stimulation of cAMP (human MC1-receptor [1]; 1 μM compound): 6.7 ± 0.3 fold
inhibition of NO-production [3]: strong dose dependent inhibition
Ki (human MC5-receptor): > 50000 nM
fold lower affinity for the MC5 receptor than for the MC1-receptor (human MC5-receptor; ratio of Ki values): more than 65000 fold
effect on cAMP levels in mouse RAW 264.7 cells [4]: marked increase in cAMP
inhibition of paw oedema (BALB/C mice; 0.05 mg/kg intraperitoneal): 3%
inhibition of paw oedema (BALB/C mice; 0.25 mg/kg intraperitoneal): 5%
inhibition of paw oedema (BALB/C mice; 0.37 mg/kg intraperitoneal): 12%
inhibition of paw oedema (BALB/C mice; 0.5 mg/kg intraperitoneal): 39%
inhibition of paw oedema (BALB/C mice; 0.75 mg/kg intraperitoneal): 10%
DNFB induced increase in blood platelet counts (BALB/C mice; intraperitoneal): returned towards the normal
DNFB induced increase in count of lymphocytes/monocytes in the blood (BALB/C mice; intraperitoneal): essentially returned to normal levels
DNFB induced increase in granulocyte counts of the blood (BALB/C mice; [6]): essentially normalized
DNFB induced increase in total white cell blood counts (BALB/C mice; [6]): essentially normalized
Ki (human MC1-receptor [2]): 0.76 nM
effect on cAMP levels in mouse B16 melanoma cells (mouse B16 melanoma cells): marked increase in cAMP
TNF α upregulated expression of mRNA for ICAM-1, VCAM and E-Selectin [5]: inhibition of the upregulated expression of mRNA
TNF α upregulation of the ICAM-1, VCAM and E-Selectin proteins [5]: inhibition of the upregulation
